The values that follow come from paper PMC7875557, “Development and optimization of sitagliptin and dapagliflozin loaded oral self-nanoemulsifying formulation against type 2 diabetes mellitus” (Drug Delivery, 2020).

Data set [1] in a line: β-carotene–linoleic acid (bleaching) assay. The following applies: 1000 µg. As for the experimental part:
The antioxidant activity of the samples were evaluated using the β-carotene bleaching method described by Velioglu et al. ([1998]) with modifications. One milliliter (1 mL) of a 0.2 mg/mL solution of β -carotene in chloroform was added to flasks containing 0.2 mL of Tween 20 and 0.02 mL of linoleic acid. The chloroform was removed in a rotary evaporator at 40 °C. The resulting mixture was then diluted with 100 mL of distilled water and mixed for approximately 2 min to form an emulsion. Similarly, another mixture was prepared without β-carotene to use as a blank. A control containing 0.2 mL of 80% (v/v) methanol was also used instead of sample. Aliquot of the emulsion (5 mL) was added to 0.2 mL of the sample at 1 mg/mL. As a standard, Rutin (1 mg/mL) was used. The tubes were incubated in a water bath at 40 °C for 2 h. Absorbance was measured at 470 nm at 15 min intervals, using a UV–visible spectrophotometer (UV mini-1240, Shimadzu, Japan) and the antioxidant activity was calculated from the equation below: (2) % of antioxidant activity= (Abs0 − Abst)/(Abs0° − Abst°) ×100 where, Abs0 and Abs0° represented the absorbance values measured at zero time of incubation for sample extract and control, respectively. Abst and Abst° are the absorbance values at t = 120 min for samples and control, respectively.

The nature of data set [2]: Equilibrium solubility (shake flask). It is filed as physicochemical. The settings on record: for Solubility in Water (100%): 100% water. The protocol:
[…] The samples were prepared by adding an excess amount of SN and DN to the formulations, which was then thoroughly agitated with a vortex mixer to ensure adequate mixing. Three replicates were taken for each formulation. The samples for the solubility experiments were analyzed using in-house developed UHPLC method by dissolving each of the formulations with an appropriate solvent.

Data set [3] can be described thus: In vivo oral bioavailability / pharmacokinetic study. The settings on record: male, Wister, rat, plasma, 6 mg/kg; rats, after oral administration; read-out: Time to peak plasma levels. The protocol:
Male rats (Wister, 200–220 g) were obtained from Laboratory Animal Center of pharmacy college, KSU. The rats were randomly allocated into two groups, each group consisted of six rats: the representative SNEDDS [F1, BSO/CMCM/CrEL (15/35/50%w/w)] (group A) and marketed drug (group B). The animals were fasted for 12 h prior to the oral administration of SNEDDS of DN (6 mg/kg rat). The experimental procedures were carried out in accordance with the principles of National Institute of Health Guide for the Care and Use of Laboratory Animals (NIH Publications No. 80–23; 1996) as well as the animal facilities guidelines from the Ethical committee of Experimental Animal Care Center, College of Pharmacy, King Saud University (Clearance No. KSU-SE—19-105; 20th November 2019). […]
In vivo animal studies were performed using only DN in the dose and SN was not included due to the different pharmacokinetic features of the SN and DN. […] The concentration of DN in plasma was determined by UHPLC as follow: A 775 μL of methanol was added to 225 μL aliquot of plasma. […] The nonlinear pharmacokinetic parameters such as Cmax, Tmax, and AUC(0–∞) were determined.
The pharmacokinetic assessment was done after oral administration on the basis of DN concentrations in the plasma samples of the rat. […] This was vortexed and transferred to an auto sampler vial to be analyzed in the UHPLC system. […]

For the next data set, the system named is SGLT2. The following applies: ref Santos et al., 2017, Wilding et al.; cited from earlier work.
Another data set relates to Diabetic mice (STZ). Nature of the data set: Anti-diabetic study in streptozotocin-induced diabetic mice. It is filed as in vivo, Swiss albino mice. The settings on record: DN 6 mg/kg, SN 10 mg/kg; for Glucose level 0 h: STZ (60 mg/kg) diabetic mice, before dose; for Glucose level 0 h / Glucose level 2 h: Mean ± SEM, n = 3; for Glucose level decrease / Glucose level 2 h / % Inhibition of glucose level: STZ diabetic mice; for Glucose level decrease: 0 h to 2 h; for Glucose level 2 h / % Inhibition of glucose level: 2 h after dose. As for the experimental part: Male Swiss albino mice (20–25 g) roughly of same age group were procured from the Experimental Animal Care Center, College of Pharmacy, King Saud University, with the approval Clearance No. KSU-SE—19-105 (20th November 2019) by the Ethical committee. The animals used in this study were kept at 22 °C temperature by maintaining 55% humidity and light/dark (12/12 h) conditions. They were provided free access to Purina chow and drinking water ad libitum. The […] were initially acclimatized for seven days prior to being used for the anti-diabetic studies.
Diabetes was induced overnight in fasted mice by single intraperitoneal (IP) injection of 60 mg/kg of streptozotocin (STZ) that was freshly dissolved in 0.1 M cold citrate buffer at pH 4.5. After 72 h of STZ administration, blood was collected from the animals and plasma glucose levels were examined. Animals that were confirmed diabetic by the elevated plasma glucose levels (>200 mg/dl) were used for the experiment. The animals were then randomly assigned into seven groups of three animals and received the following treatments: Group I: Normal control mice treated with Normal saline; Group II: Diabetic control mice treated with Normal saline; Group III: Diabetic mice treated with thymoquinone 5 mg/kg (IP); Group IV: Diabetic mice treated with DN 6 mg/kg (IP); Group V: Diabetic mice treated with SN 10 mg/kg (IP); Group VI: Diabetic mice treated with DN 6 mg/kg (IP) and SN 10 mg/kg (IP); Group VII: Diabetic mice treated with marketed product Dapazin® 6 mg/kg (IP).

Data set [4] can be described thus: DPPH free radical scavenging assay. The protocol: For antioxidant activity, DPPH (2, 2-diphenyl-1-picrylhydrazyl) free radical scavenging assay was employed. This method was carried out as previously described by Brand-Williams et al. ([1995]). The method quantifies free radical scavenging capacity of the investigated samples. DPPH is a molecule that contains a stable free radical. In the presence of an antioxidant which is able to donate an electron to DPPH, the change in the absorbance at 517 nm is followed spectrophotometrically (UV mini-1240, Shimadzu, Japan). Various concentrations of […] (10, 50, 100, 500, and 1000 μg/mL) were used. The assay mixture was made up of a total volume of 1 mL, containing 500 μL of the sample, 125 μL of the prepared DPPH, and 375 μL of methanol. As positive control, ascorbic acid was used. The samples were incubated for 30 min at 25 °C, after which the decrease in absorbance was measured at λ = 517 nm. Radical scavenging activity of the samples were calculated using the following equation below: (1) % radical scavenging activity=(Abs control − Abs sample/Abs control) ×100
Background: The DPPH test is a chemical assay of radical scavenging.

The compound `C[C@@H]1O[C@@H](OC[C@H]2O[C@@H](Oc3c(-c4ccc(O)c(O)c4)oc4cc(O)cc(O)c4c3=O)[C@H](O)[C@@H](O)[C@@H]2O)[C@H](O)[C@H](O)[C@H]1O` [Rutin] yielded a Total antioxidant activity in data set [1] of 93.1 ± 1.2%.

As to `CCOc1ccc(Cc2cc([C@@H]3O[C@H](CO)[C@@H](O)[C@H](O)[C@H]3O)ccc2Cl)cc1` [Dapagliflozin, dapagliflozin], the “Solubility in Water (100%)” value in data set [2] is on record as 1.48 ± 0.14 mg/g. In addition, the Tmax in data set [3] was at most 4 h. In addition, the “Selectivity for SGLT2 over SGLT1” value in the data set on SGLT2 was 1200 fold. In the data set on Diabetic mice (STZ), the “Glucose level 0 h” value is 362.00 ± 4.93 mg/dL, the Glucose level decrease was determined as 143 mg/dL and the “Glucose level 2 h” value was determined as 219.00 ± 7.57 mg/dL. In addition, the “% Inhibition of glucose level” value in the data set on Diabetic mice (STZ) (listed as DN) is recorded as 39.50%. The “% Inhibition of glucose level” value in the data set on Diabetic mice (STZ) (listed as DN (pure)) was 39.50↓ %.

Take `O=C1O[C@H]([C@@H](O)CO)C(O)=C1O` [Ascorbic acid]: the Radical scavenging activity in data set [4] (10 µg) is 33.7 ± 3.5%; in data set [4] (50 µg) it was 74.1 ± 1.3%; in data set [4] (100 µg) it was 85.6 ± 3.2%; in data set [4] (500 µg) it was 88.7 ± 2.7%; in data set [4] (1000 µg), 91.7 ± 3.4%.

As for `N[C@@H](CC(=O)N1CCn2c(nnc2C(F)(F)F)C1)Cc1cc(F)c(F)cc1F` [Sitagliptin, sitagliptin], the “Solubility in Water (100%)” value in data set [2] is 3.62 ± 0.11 mg/g. Moreover, the “Loading of SN in the anhydrous SNEDDS relative to aqueous solubility” value in data set [2] (from equilibrium solubility of diluted formulations) is on record as over 400%. Moreover, in the data set with Diabetic mice (STZ), the “Glucose level 0 h” value amounted to 381.33 ± 11.25 mg/dL, the Glucose level decrease was 208 mg/dL and the “Glucose level 2 h” value came out at 173.33 ± 7.53 mg/dL. Moreover, in the data set on Diabetic mice (STZ) (listed as SN), the “% Inhibition of glucose level” value was 54.54%. For the same compound, the “% Inhibition of glucose level” value in the data set on Diabetic mice (STZ) (listed as SN (Pure)) was 54.54↓ %.
